Earlier results on one compound are cited in patent US8846104B2, “Pharmaceutical compositions for the deterrence and/or prevention of abuse” (priority 2006, dated 2014).

The series relates to mu over delta sites.

Turning to `O=C1CC[C@@]2(O)[C@H]3Cc4ccc(O)c5c4[C@@]2(CCN3CC2CC2)[C@H]1O5` [naltrexone], the “blocking action, site preference” value is reported as “strong preferential blocking action against mu over delta sites”.
